Earlier results on three molecules are cited in patent US20090311266A1, “Inhibitors of the endothelin signalling pathway and alphavbeta3 integrin receptor antagonists for combination therapy” (BASF AKTIENGESELLSCHAFT, priority 1999, published 2009).

Series [1] relates to ischemic complications after coronary interventions.
Series [2] relates to pigs with coronary artery stents. Particulars: 28 days of oral treatment (b.i.d.).
Series [3] relates to porcine coronary injury model.

Consider “abciximab: anti-platelet integrin αIIbβ3 antibody abciximab (c7E3 Fab, Reopro®)”, for which, in series [1], the “suppression of ischemic complications (endpoints death, MI or repeat intervention)” value is recorded as “sustained suppression of ischemic complications”.
As for `CCCCN(CCCC)C(=O)CN1C[C@H](c2ccc3c(c2)OCO3)[C@@H](C(=O)O)[C@@H]1c1ccc(OC)cc1` (relative stereo) [A 127722, trans-trans-2-(4-methoxyphenyl)-4-(3,4-methylendioxyphenyl)-1-(2-(N,N-dibutylamino)-2-oxoethyl)-pyrrolidine-3-carboxylic acid], the “maximal reduction in neointima formation” value in series [2] is “about 30%”.
In the case of cyclo[R-G-D-Mamb-A] [XJ 735], in series [3], the less lumen stenosis is listed as 2.9 fold and the “reduction of neointimal hyperplasia” value was 43%.
